Reference: PMC3605511, “Tumor P-Glycoprotein Correlates with Efficacy of PF-3758309 in in vitro and in vivo Models of Colorectal Cancer” (Frontiers in Pharmacology, 2013)
Like-named read-outs stand apart in the source and are kept apart here.

Experiments:
SW1116 = experiment: Cell proliferation assay, SW1116; format: cell-based; settings: Homo sapiens, SW 1116; SW1116, 72 h, SRB assay
Protocol: (§1) Cytotoxic/proliferation effects were determined using the sulforhodamine B (SRB) assay (Skehan et al., [1990]) or by resazurin. Briefly, cells in logarithmic growth phase were transferred to 96 well flat bottom plates with lids. One-hundred microliter cell suspensions containing 1500–5000 viable cells were plated into each well and incubated overnight prior to exposure with increasing concentrations of PF-309 for 3–5 days, dependent upon cell type. Media was removed and cells were fixed with cold 10% trichloroacetic acid for 30 min at 4°C. Cells were then washed with water and stained with 0.4% SRB (Fisher Sci., Pittsburgh, PA, USA) for 30 min at room temperature, washed again with 1% acetic acid, followed by stain solubilization with 10 mM tris at room temperature. The plate was then read on a plate reader (Biotek Synergy 2, Winooski, VT, USA) set at an absorbance wavelength of 565 nm. Cell proliferation curves were derived from the raw absorbance (OD) data.
(§2) Since PF-309 appeared to be a strong P-gp and BCRP substrates, we sought to evaluate if the transporters influenced sensitivity in vitro. We evaluated the sensitivity of CRC cell lines to PF-309 treatment in a panel of 27 lines. Cells were exposed to PF-309 at a range of concentrations for 72 h and cell content measured by SRB assay (see Pitts et al., [2013]). […]

[1] = tested on: CRC, breast, and non-small cell lung cancer cell lines; experiment: Proliferation by resazurin, expanded panel of 71 cell lines; format: cell-based; settings: Homo sapiens, printed over a group of bars, cell lines covered not named
Protocol: as §1, §2

NCIH508 = experiment: Cell proliferation assay, NCIH508; format: cell-based; settings: Homo sapiens, NCI-H508; NCIH508, 72 h, SRB assay
Protocol: as §1, §2

DLD1 Scr = experiment: Proliferation, control shRNA, DLD1 Scr; format: cell-based; settings: Homo sapiens, DLD-1; DLD1 Scr:50, control shRNA
Protocol: as §1
The pGIPZ Pgp-specific shRNA expression cassettes, along with control shRNA plasmids including the original pGIPZ vector were purchased from Open Biosystems (Birmingham, AL, USA). […] Successful knockdown of specific genes and gene products was confirmed by semi-quantitative RT-PCR and immunoblotting with specific antibodies. […]

P-gp = target: T1, P-gp (Homo sapiens, UniProt P08183); experiment: MDR1-MDCK transwell assay (P-gp efflux); format: in vitro ADME; settings: dog, ratio of B → A flux to A → B flux, >2 = substrate
T1 construct: expressed in transfected cells; host or cells: MDR1-MDCK cells (canine kidney MDCK)
T1 sequence (P08183 whole entry): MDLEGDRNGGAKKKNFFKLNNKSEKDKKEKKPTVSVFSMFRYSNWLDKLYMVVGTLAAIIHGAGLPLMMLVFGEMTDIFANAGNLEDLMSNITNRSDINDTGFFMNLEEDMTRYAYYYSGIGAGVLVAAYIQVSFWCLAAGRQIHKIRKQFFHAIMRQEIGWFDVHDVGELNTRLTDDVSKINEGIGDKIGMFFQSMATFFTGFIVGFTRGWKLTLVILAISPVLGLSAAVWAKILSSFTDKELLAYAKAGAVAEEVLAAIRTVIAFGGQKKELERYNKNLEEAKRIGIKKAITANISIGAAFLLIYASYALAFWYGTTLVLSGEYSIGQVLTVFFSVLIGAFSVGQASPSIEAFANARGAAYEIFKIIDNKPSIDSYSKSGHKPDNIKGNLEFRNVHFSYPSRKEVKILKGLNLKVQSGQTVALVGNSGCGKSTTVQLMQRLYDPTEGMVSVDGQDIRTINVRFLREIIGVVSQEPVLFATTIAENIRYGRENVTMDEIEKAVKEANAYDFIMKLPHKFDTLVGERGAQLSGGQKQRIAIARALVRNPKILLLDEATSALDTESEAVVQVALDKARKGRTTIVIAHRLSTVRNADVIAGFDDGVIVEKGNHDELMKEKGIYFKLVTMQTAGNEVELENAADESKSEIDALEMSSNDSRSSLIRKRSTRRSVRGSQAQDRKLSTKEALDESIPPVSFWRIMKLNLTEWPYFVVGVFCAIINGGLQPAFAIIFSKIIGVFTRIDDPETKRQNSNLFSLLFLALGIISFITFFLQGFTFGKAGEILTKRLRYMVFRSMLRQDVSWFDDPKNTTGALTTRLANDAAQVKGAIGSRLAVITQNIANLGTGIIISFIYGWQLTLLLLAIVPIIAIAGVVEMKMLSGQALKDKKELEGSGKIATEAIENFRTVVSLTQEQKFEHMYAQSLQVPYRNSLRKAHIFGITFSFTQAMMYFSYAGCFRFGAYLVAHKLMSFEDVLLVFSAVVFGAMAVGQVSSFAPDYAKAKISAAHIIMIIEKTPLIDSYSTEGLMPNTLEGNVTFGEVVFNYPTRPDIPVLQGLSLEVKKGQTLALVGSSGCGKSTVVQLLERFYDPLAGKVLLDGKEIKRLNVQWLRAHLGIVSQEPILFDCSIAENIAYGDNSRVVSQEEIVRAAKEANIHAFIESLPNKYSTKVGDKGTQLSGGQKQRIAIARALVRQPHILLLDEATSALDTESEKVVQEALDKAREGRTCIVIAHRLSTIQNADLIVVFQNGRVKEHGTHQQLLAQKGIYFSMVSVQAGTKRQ
Protocol: Permeability and transporter substrate assays were performed as previously published (Feng et al., [2008]; Callegari et al., [2011]; Di et al., [2011]). Permeability assays were conducted in MDCKII-LE cells, which were generated by isolation of a subpopulation of cells with low expression of endogenous P-gp (Feng et al., [2008]; Callegari et al., [2011]; Di et al., [2011]). The use of MDCKII-LE cells are used to measure the passive permeability of compounds in place of MDCK wild-type or Caco-2 cells since both MDCK wild-type and Caco-2 cells are known to have some level of endogenous transporter expression which can affect the permeability measurement. P-gp efflux was determined in MDR1-MDCK cells and BCRP efflux was measured in BCRP-MDCKII-LE cells.
MDR1-MDCK and BCRP-MDCKII-LE transwell assays measure the effect of P-gp and BCRP, respectively, on transcellular flux. The efflux ratio, ratio of the B → A flux to the A → B flux, of PF-309 was measured to be 34.9 ± 7.9 in the MDR1-MDCK assay, indicating it is a strong substrate for P-gp. PF-309 was also determined to be substrate for BCRP as the efflux ratio was measured to be 7.6 ± 1.1. As a reference, compounds with efflux ratios >2 are considered to be substrates (Callegari et al., [2011]).

Caco-2 = experiment: Cell proliferation assay, Caco-2; format: cell-based; settings: Homo sapiens
Protocol: as §1, §2

SW620 = experiment: Cell proliferation assay, SW620; format: cell-based; settings: Homo sapiens, SW-620; SW620, 72 h, SRB assay
Protocol: as §1, §2

T84 = experiment: Cell proliferation assay, T84; format: cell-based; settings: Homo sapiens; T84, PF-309 alone, 72 h; 1 uM was the maximum concentration used
Protocol: as §1, §2

GEO = experiment: Cell proliferation assay, GEO; format: cell-based; settings: Homo sapiens, 72 h, SRB assay
Protocol: as §1, §2

IC50 (SW1116): > 1000 nM
IC50 [1]: > 100 nM
IC50 (DLD1 Scr): 103 nM
efflux ratio (P-gp): 34.9 ± 7.9
IC50 (Caco-2; Caco-2, CACO2, 72 h, SRB assay, read-out: IC50): > 1000 nM
IC50 (Caco-2; Caco-2, PF-309 alone, 72 h, read-out: PF-309 IC50): 300 nM
IC50 (SW620): 5 ± 3.1 nM
SMILES: Cc1nc(Nc2n[nH]c3c2CN(C(=O)N[C@H](CN(C)C)c2ccccc2)C3(C)C)c2sccc2n1 [PF-309]
IC50 (NCIH508): > 1000 nM
IC50 (T84): > 1000 nM
IC50 (GEO): > 1000 nM
